pIC50: −log10 of the molar value.
What was measured:
[1] = tested on: HeLa cells; test: 2-oxobutyrate reversal of MTOB-induced growth inhibition of HeLa cells (methionine-free medium); type: cell-based
Experimental: HeLa cells (0.5×10^6 per Petri dish) were cultured in 3 ml of a minimum essential Eagle medium not containing methionine and containing 10% by weight dialyzed fetal calf serum. After four hours, 2-oxobutyrate (10 mM-40 mM) in the presence of 2 mM 4-methylthio-2-oxobutanoic acid (MTOB) were added. After three days at 37° C., the cells were washed twice in a buffered, phosphatized saline medium having a pH of 7.5 (PBS medium) and collected in the same type of buffer. Cell growth was measured in the same manner as in the preceding example.
Beginning at a level of 10 mM 2-oxobutyrate, inhibition decreased 2-3 times.

[2] = tested on: BAF3 cells; test: Apoptosis of BAF3 cells, terminal deoxynucleotidyl transferase (TdT) test, flow cytometry; type: cell-based, mouse; conditions: 24 hours; compound A 50 μM, BCNU 40 μg/ml, or both; control 0.2
Experimental: Effect of BCNU and of an inhibitor of the transaminase implicated in the transformation of 4-methylthio-2-oxobutanoic acid into methionine on apoptosis:
The DNA strand cuttings were marked with biotinylated dUTP (detected by avidin fluorescein), in situ, in the cells rendered permeable and fixed using the terminal DNA transferase deoxynucleotidyl test (TdT), as described in Gorczyca et al, Cancer Res., 53, 1945-1951 (1993). 1.5×10^6 BAF3 cells (cell line described above) seeded in 3 ml of a culture medium containing IL3 (Dulbecco-modified Eagle medium containing 6% fetal calf serum and 5% of a medium treated with Wehl-3B cells used in the IL3 source). The cells were incubated in the presence of compound A in a concentration of 50 μM, 40 μg/ml of BCNU, and the mixture of these two compounds (50 μM of compound A+40 μg/ml of BCNU) or in the absence of these two compounds (control). After a 24-hour incubation period of time, the cells were washed in PBS buffer and fixed in formaldehyde, then in ethanol, and maintained a -20° C. for 3 days. Next, the cells were again placed in suspension in 50 μl of a solution containing […] sodium cacodylate, pH=7.5, 1 mM CoCl2, 0.1 mM dithiothreitol, 0.05 mg/ml Bovine Serum Albumin, 10 units TdT (from Boerhringer calf thymus), 0.5 nmol dCTP, and 0.5 nmol dGTP for one hour at 37° C. […]

[3] = tested on: murine B16 Fl melanoma cells; test: Survival of mice grafted with B16 melanoma cells; type: in vivo, mouse; conditions: BCNU 0.1 mg/kg, Compound A 25 mg/kg
Experimental: At t=0 day, 10^5 murine B16 Fl melanoma cells were injected into B6D2Fl mice (from the IFFA CREDO Company, France).
Table 5 reports the results corresponding to averages of the results obtained on three treated mice.
For the regimens containing multiple compounds, the quantities of each of the compounds used were identical to those of the regimens using the compounds by themselves.
Survival time was recorded beginning at t=0 day, as indicated above.
BCNU corresponds to N,N-Bis(2-chloroethyl)-N-nitrosourea. Compound A corresponds to the compound having formula (9), wherein X is a --OH radical.
Between the two regimens, the latter (to which methional was added) accounted for one-third of the mice surviving more than 60 days. The "average survival time" is the mean of the number of mice dying over the course of the experiment, i.e., within 60 days.
The procedure of the previous example was repeated, but the regimens and numbers of mice treated varied.
With respect to this latter regiment, the quantities corresponded to the quantities of compounds used alone. The percentage of long-term survivors corresponded to the percentage of mice which survived beyond 60 days.

[4] = tested on: reactive oxygenated substances (H2 O2 and HO^-); test: Production of reactive oxygenated substances (H2O2 and HO-) in BAF3 cells, DCFH-DA flow cytometry; type: cell-based, mouse; conditions: for Fluorescence/10^6 cells: compound A 0 μM
[5] = tested on: HeLa cells; test: Effect of metabolites on the growth of HeLa cells; type: cell-based; conditions: Homo sapiens, 72 h, three days at 37° C., estimated by protein content, average of 3 or 4 experiments, read-out: IC50 (concentration required to inhibit cell growth by 50%)
Experimental: HeLa cells (0.5×10^6 per Petri dish) were cultured in 3 ml of a minimum essential Eagle medium containing 10% by weight dialyzed fetal calf serum. After four hours, methional (10 μM-1 mM), methionol (10 μM-20 mM), methylthiopropionic acid (MTPA) (1 μM-20 mM), L-methionine (1 μM-20 mM) or 4-methylthio-2-oxobutanoic acid (MTOB) (1 μM-20 mM) were added to each of the three dishes. After three days at 37° C., the cells were washed twice in a buffered, phosphatized saline medium having a pH of 7.5 (PBS medium) and collected in the same type of buffer.
Cell growth was assessed by measuring protein content (see technique described in O. H. Lowry, N. J. Rosebrouh, A. L. Farr, and R. J. Randall, J. Biol. Chem., 193, 265-275 (1951)) or the DNA content in the lysate using a bisbenzimide trihydrochloride solution (Hoechst 33258) (see W. D. Jarvis, R. N. Kolesnick, F. A. Fornari, R. S. Traylor, D. A. Gewirtz, and S. Grant, Proc. Natl. Acad. Sci. USA, 91, 73-77 (1994)), or by determining […] using 3-(4,5-dimethylthiazol-2-yl)-2,5-diphenyl-tetrazolium bromide (MTT) (see T. Mosmann, J. of Immunology, Methods, 65, 55-63 (1983)).
Each value of is the average of 3 or 4 experiments as estimated by protein content.
IC50 represents the concentration of compound required to inhibit cell growth by 50%.

[6] = tested on: BAF3-bO cells
Experimental: (§1) The cells used were identical to those in the preceding example.
(§2) [^14 C]MTOB was prepared by oxidative deamination of [^14 C]Methionine, as described in Ogier et al, Biochem. Pharmacol., 45, 1631-1644 (1993). [^14 C]MTOB (5×10^6 dpm corresponding to 38.2 nmol) was added to a cellular BAF3-bO or BAF3-bcl2 suspension (2.4×10^5 cells/ml) in DMEM containing 6% fetal calf serum and 5% IL3. 39 hours later, the cells were washed twice in PBS and placed in suspension at a concentration of 9×10^5 cells/ml. [U ^14 C]MTOB (1.9×10^6 dpm corresponding to 14.5 nmol) was added to 10^8 cells, and, eight hours later, the cells were collected by centrifugation at 400 g for five minutes. The cellular sediments were solubilized using 1.5 ml of 0.5N NaOh for 30 minutes at 60° C. The total radioactivity in the cells was measured on 10 μl aliquots. Next, perchloric acid in a final concentration of 0.5N, then 200 μmol of 2,4-DNPH (2,4-dinitrophenylhyrazine, marketed by Merck) were added to the alkaline hydrolyzate obtained. The mixture was heated to 70° C. for 30 minutes, then centrifuged at 400 g for five minutes. The precipitate was solubilized ion 1 ml of 0.5N NaOH, and the radioactivity and protein content were determined. NaOH, pH=10, was added to the supernatant. The marked metabolites were extracted in ethylene acetate, and the organic phase was dried, acidified, and extracted in dichloromethane. The marked metabolites in the organic phase were separated out and identified using high-performance thin-layer chromatography and compared to the 2,4-DNPH derivatives of the reference compounds, then quantified by radiochromatography.

[7] = tested on: BAF3-bcl2 cells
Experimental: as §1, §2

[8] = tested on: BAF3 cells; test: DNA fragmentation in BAF3 cells, agarose gel electrophoresis; type: cell-based, mouse; conditions: 200-800 μM, medium with IL3, 8 hours
Experimental: K. L. Collins, J. Marvel, […] A. Lopez-[…]. Exp. Med., 176, 1043-1051 (1992)]. […] After 8 hours of contact, the cells were washed three times in a phosphatized buffered saline medium, pH=7.5 (PBS medium). […] The supernatants were decanted and analyzed as indicated below. For purposes of comparison, the same cultures were grown in a medium, either with IL3 (+IL3) or without IL3 (-IL3). The DNA fragments obtained were analyzed qualitatively using the method described, in particular, in W. D. Jarvis, […], and S. Grant, Proc. Natl. Acad. Sci. USA, 91, 73-77 (1994). The supernatants were treated with ribonuclease A (20 μg/ml) for 1 hour at 37° C., and with the proteinase R (100 μg/ml). The DNA was purified using phenol extraction and precipitated with ethanol. […] After electrophoresis (60V, 3 hours), the gels were stained with ethydium bromide.

[9] = Table 5, three mice, daily injection for 15 days, Methional 25 mg/kg, control 20.5

Structure (SMILES): CCC(=O)C(=O)O [2-oxobutyrate]
- decrease of growth inhibition ([1]; beginning at 10 mM 2-oxobutyrate, with 2 mM MTOB): 2-3 times

Structure (SMILES): O=NN(CCCl)C(=O)NCCCl [BCNU, N,N-Bis(2-chloroethyl)-N-nitrosourea]
- % apoptotic cells [2]: 2.3%
- Average Survival Time [3, 9]: 24.5 days
- % long-term survivors (mice surviving beyond 60 days) ([3]; Table 6, 6 or 10 mice, Methional 50 mg/kg, control 0): 0%
- Average Survival Time ([3]; Table 6, 6 or 10 mice, Methional 50 mg/kg, control 23.7): 32.5 days
- Fluorescence/10^6 cells ([4]; BCNU 10 μg/ml): 4%
- Fluorescence/10^6 cells ([4]; BCNU 20 μg/ml): 4%
- Fluorescence/10^6 cells ([4]; BCNU 40 μg/ml): 10%

Structure (SMILES): CSCCC(NCc1c(CO)cnc(C)c1O)C(=O)OC(C)(C)C (stereo not drawn) [Compound A]
- % apoptotic cells [2]: 0.3%
- Average Survival Time [3, 9]: 21.9 days
- effect on increase of HO^- resulting from increased BCNU concentration ([4]; compound A 50 μM with BCNU): suppressed the increase of HO^-

Structure (SMILES): CSCC[C@H](N)C(=O)O [L methionine, L-methionine]
- pIC50 [5]: < 1.70

Structure (SMILES): CSCCC(=O)C(=O)O [MTOB, 4-methylthio-2-oxobutanoic acid]
- pIC50 [5]: 2.80
- inhibition at 2000 µM ([1]; Homo sapiens, HeLa, 72 h, 2 mM MTOB alone, three days at 37° C.): 72%

Structure (SMILES): CSCCC(=O)O [MTPA, methylthiopropionic acid]
- pIC50 [5]: 2.00

Structure (SMILES): CSCCC(=O)C(=O)O [[^14 C]MTOB]
- 2,4-DNPH malondialdehyde (2,4-DNPH pyrazole) ([6]; BAF3-bO): 800 dpm/mg of DNA
- 2,4-DNPH methional ([6]; BAF3-bO): 14,050 dpm/mg of DNA
- Free methional ([6]; BAF3-bO): 36,820 dpm/mg of DNA
- Spec. activity of cellular proteins ([6]; BAF3-bO): 23,500 dpm/mg protein
- radioactivity in methional higher in BAF3-bO than in BAF3-bcl2 cells ([6]; BAF3-bO compared with BAF3-bcl2): 80%
- Total radioactivity/mg of DNA ([6]; BAF3-bO, incubation 47 hours): 1,252,000 /mg of DNA
- 2,4-DNPH malondialdehyde (2,4-DNPH pyrazole) ([7]; BAF3-bcl2): 0 dpm/mg of DNA
- 2,4-DNPH methional ([7]; BAF3-bcl2): 7,650 dpm/mg of DNA
- Free methional ([7]; BAF3-bcl2): 51,440 dpm/mg of DNA
- Spec. activity of cellular proteins ([7]; BAF3-bcl2): 20,850 dpm/mg protein
- Total radioactivity/mg of DNA ([7]; BAF3-bcl2, incubation 47 hours): 1,111,000 /mg of DNA
- marked malondialdehyde formation, result in words ([7]; BAF3-bcl2 cell extracts): no radioactivity with respect to the malondialdehyde was detected
- increase in radioactivity of free methionine (printed metmonine) in BAF3-bcl2 versus BAF3-bO cells ([7]; BAF3-bcl2 compared with BAF3-bO): 40%

Structure (SMILES): CSCCCO [methionol]
- pIC50 [5]: < 1.70

Structure (SMILES): CCCO [propanol]
- triggering of apoptosis (ladder of DNA fragments of 180 to 200 base pairs on gel) [8]: the gel did not possess this characteristic

— patent US5744499A, “Apoptosis-modulating factors influencing the intracellular concentration of methional/malondialdehyde” (Centre International de Recherches Dermatologiques Galderma, priority 1994, dated 1998)
